# What was measured:
# Type in all cases: cell-based
# [1] = test system: CLIP occupancy of MHC class II (HLA-DR) on CIITA-4 melanoma cells, WM9 melanoma cells and Raji B cells; assay: Flow cytometry of surface CLIP and HLA-DR (CLIP/HLA-DR ratio) after HDACi treatment; settings: 5 μM Entinostat or 3 μM Vorinostat, 40 hours, vs DMSO
# Description: To determine whether HDACi's could affect anti-tumor immunity, major histocompatibility (MHC) class II positive melanoma cells were treated with HDACi's and assayed for potential alterations in the binding of MHC class II to antigenic peptides. More specifically, melanoma cells were treated with Entinostat or Vorinostat, two HDACi's currently used to treat patients. The CIITA-4 melanoma cells were previously transformed with an expression vector for the MHC class II transactivator, CIITA, which leads to constitutive MHC class II expression. The WM9 melanoma cells have naturally occurring CIITA and MHC class II expression. Raji B cells also constitutively express both CIITA and MHC class II.
# Cells were cultured in RPMI (antibiotic supplements and 10% fetal calf serum) and treated with either DMSO, 5 μM Entinostat, 3 μM Vorinostat, or 400 units/ml IFN-γ. […] Surface expression of HLA-DR, the most significant MHC class II protein, was detected using flow cytometry. Surface expression of the class II associated invariant chain peptide (CLIP) was also detected using flow cytometry. […]
# Samples were analyzed on a BD LSR II flow cytometer (San Jose, Calif.) equipped with 405 nm, 488 nm and 633 nm lasers using BD FacsDiva 6.1.3 software. FITC, PE and DAPI dyes were detected using 530/30, 575/26 and 450/50 band pass filters, respectively. […]
# [2] = test system: cathepsin L1 mRNA in Raji B-cells; assay: RT-PCR assay of cathepsin L1 mRNA in Raji B-cells; settings: normalized to GAPDH mRNA and DMSO, 40 hours
# Description: (§1) An RT-PCR assay of cathepsin L1 mRNA was performed in treated Raji B-cells. More specifically, RNA was extracted from the DMSO, Entinostat, Vorinostat, and IFN-γ treated Raji B-cells described in Example 1 using an RNeasy Mini Kit< Qiagen cat #74106. RNA quality was verified using a bioanalyzer (Agilent). Reverse transcription of total RNA (1 μg) to cDNA was done with a High Capacity RNA-to-cDNA Master Mix (Applied Biosystems part of Life Technologies, Foster City, Calif., catalog number 4390777). In a 0.2 ml PCR tube, 5×Complete Master Mix (4.0 μl) and nuclease-free H20 were mixed with 1 μg RNA for a total reaction volume of 20 μL. The sample was incubated at 25° C. for 5 minutes, 42° C. for 30 minutes and then 85° C. for 5 minutes in a DNA Engine Peltier thermal cycler (Bio-Rad). qPCR target related: cathepsin L1, CTSL1, RefSeq-NM13 001912.4, amplicon length-85 bp, Assay ID Details-Hs00377632_ml; Cathepsin S, CTSS, RefSeq-NM_004079.4, amplicon length-70 bp, Assay ID Details Hs00175407_ml; GAPDH-glyceraldehyde-3-phosphate dehydrogenase, Gapdh, RefSeq-NM_00246.3, amplicon length-58 bp, Assay ID Details-Hs03929097_gl.
# (§2) All primers and probes were from Applied Biosystems Assay-on-Demand. […] The GAPDH was used as an endogenous control for relative qPCR quantification. […]
# [3] = test system: cathepsin L1 mRNA in WM9 melanoma cells; assay: RT-PCR assay of cathepsin L1 mRNA in WM9 melanoma cells; settings: normalized to GAPDH mRNA and DMSO
# cathepsin S mRNA = assay: RT-PCR assay of cathepsin S mRNA; settings: normalized to GAPDH mRNA and DMSO
# Description: as §1, §2
# Cathepsin L1 = Cathepsin L1 antibody (ctsl1) staining intensity, bright field microscopy; settings: 5 μM Entinostat vs DMSO; p-value <0.0004
# Description: In FIG. 6, samples were viewed with a Leica DMLB upright bright field microscope and a 20×/0.5NA HC PL fluortar objective (Leica Microsystems GmbH, Wetzlar, Germany). Transmitted bright light was used without contrasting methods. Gain, offset, and other acquisition settings were identical for all samples within each group. The number of nuclei was determined with auto-threshold segmentation on the cell morphology. The nuclei segmentation was further refined by size and shape of the objects created from the initial segmentation. ImagePro Plus v6.1 (Media Cybernetics, Bethesda, Md.) software was then used to determine the ctsl1 staining intensity (ctsl1 is cathepsin L1 antibody). Positive cells were established as >20DR over background for each 8bit image (0-255DR). The number of pixels over this threshold per cell was used to determine the differences between the Entinostat and DMSO groups. Each image and analysis was blinded and completed in triplicate (p-value <0.0004).
SMILES,amount of CLIP associated with MHC Class II on the APC surface (CLIP occupancy) [1],cathepsin L1 mRNA induction [2],cathepsin L1 mRNA induction [3],cathepsin S mRNA induction (cathepsin S mRNA),"induction of Cathepsin L1 (ctsl1 staining intensity, FIG. 5) (Cathepsin L1)"
Nc1ccccc1NC(=O)c1ccc(CNC(=O)OCc2cccnc2)cc1 [Entinostat],reduction in the amount of CLIP,induces cathepsin L1 mRNA,induces cathepsin L1 mRNA,no effect,significant induction
"O=C(CCCCCCC(=O)Nc1ccccc1)NO [Vorinostat, Suberoylanilide hydroxamic acid]",reduction in the amount of CLIP,no effect,no effect,no effect,–

# From patent publication US20140370510A1, “MODULATION OF PEPTIDOME USING HISTONE DEACETYLASE INHIBITOR” (University of South Florida (A Florida Non-Profit …, priority 2012, published 2014)
